Counter-ions that a name gives are not always drawn. Like-named read-outs stand apart in the source and are kept apart here. Some results are limits rather than exact numbers.

One series deals with T1, human opioid μ receptor (Homo sapiens, UniProt P35372).
T1 construct: host or cells: CHO cells
The series can be described thus: Opioid receptor function test (Lance Ultra cAMP Kit), μ receptor. Type of series: cell-based. Particulars: for EC50: CHO cells expressing human μ receptor, cAMP, N.C. = maximum reaction not reached at highest concentration (10 μM), not calculated, read-out: μ receptor EC° C. The procedure: (§1) Opioid Receptor Function Test
(§2) The functional activities of the compounds provided by the present invention on the μ, δ, and κ opioid receptors were investigated.
(§3) The test was performed by using Lance Ultra cAMP Kit (PerkinElmer) according to a method predetermined for the kit. In the evaluation of the agonistic activity, CHO cells expressing each of the human opioid receptors (δ, μ, and κ, accession numbers and catalog numbers are mentioned below) and 10 μM of each test compound were reacted for 30 minutes in an assay buffer (1×HESS, […], pH 7.4, […] (isobutylmethylxanthine), 7.5% BSA) in the presence of forskolin. Subsequently, the cAMP detection reagent included in the kit was added, and 1 hour afterward, time-resolved fluorescence measurement was performed by using the EnVision plate reader (PerkinElmer). The test compounds and the control drugs (δ: SNC80, μ: DAMGO, K: U-69593) were evaluated in a concentration range of 10^-12 to 10^-5 M, a dose-response curve of each test compound was obtained from the fluorescence values at 665 nm, and EC50 value and the Emax value were calculated. The Emax value was calculated as a ratio of the maximum reaction of the test compound to the maximum reaction of each control drug, which is taken as 100%.

For the next series, the target named is T2, human opioid κ receptor (Homo sapiens, UniProt P41145).
T2 construct: host or cells: CHO cells
Description: Opioid receptor function test (Lance Ultra cAMP Kit), κ receptor. Type of series: cell-based. The procedure: as §1, §2, §3

The target in the next series is T3, hERG potassium channel (Homo sapiens, UniProt Q12809).
T3 construct: host or cells: CHO cells
The series can be described thus: hERG potassium channel inhibition test (automatic patch clamp). It counts as cell-based. Particulars: for hERG channel inhibitory effect: hERG-expressing CHO cells. The procedure: Human Ether-a-Go-Go Related Gene (hERG) Potassium Channel Inhibition Test
The test was performed with Port-a-Patch automatic patch clump apparatus (Manion Technologies) using hERG channel-stably expressing CHO cells (purchased from Channelopathy Foundation). The membrane potential of the cells was maintained at −80 mV, then there were applied a depolarization pulse at +20 mV for 1.5 seconds, and a following test pulse at −50 mV for 1.5 seconds at a frequency of 1 time per 10 seconds, and the hERG current was confirmed as a tail current induced by the test pulse. The test compound was dissolved in an extracellular fluid (137 mM NaCl, 4 mM KCl, 1.8 mM CaCl2, 1 mM MgCl2, 10 mM D(+)-glucose, 10 mM HEPES, pH 7.4), and the solution was […] at room temperature for 5 minutes. The inhibition ratio was obtained from the ratio of the tail current value observed after the compound was applied based on the tail current value observed before the compound was applied, which was taken as 100%.

In another series the target is T4, human opioid δ receptor (Homo sapiens, UniProt P41143).
T4 construct: host or cells: CHO cells
Description: Opioid receptor function test (Lance Ultra cAMP Kit), δ receptor. Type of series: cell-based. Particulars: for EC50: CHO cells expressing human δ receptor, cAMP, in the presence of forskolin, read-out: δ receptor EC° C.; for Emax: ratio to maximum reaction of control drug SNC80 (100%). The procedure:
as §1, §2, §3

The subject of another series is C57BL/6N male mice. Description: Mouse elevated plus maze test. It counts as in vivo. The settings on record: 0.3 mg/kg subcutaneous administration, 30 minutes before test (FIG. 1). The procedure: Mouse Elevated Plus Maze Test
For the test, 5 to 6 weeks old C57BL/6N male mice were used. On a plus maze apparatus consisting of a wall-less running route (open arm, width 6 cm, length 30 cm) and a running route with a wall (closed arm, width 6 cm, length 30 cm, height of wall 15 cm), and having a height of 40 cm, a mouse was put so as to be directed to the running route with a wall, and allowed to spontaneously enter into the plus maze. Each test substance was dissolved in saline or 0.005 N HCl in saline, and subcutaneously administered on the back 30 minutes before the start of the test. At the time of the start of the test, video recording with a video camera was started, the time at which the mouse entered into the plus maze is considered to be the start of the test, and exploratory behavior was recorded for 5 minutes. On the basis of the video image, staying time in the running routes were determined, and wall-less running route staying time ratio (%) was calculated.

A short description of series [1]: Intracerebral migration test (concentration in cerebrospinal fluid and plasma). Type of series: in vivo. Particulars: male, Wistar, sc, rat, 3 mg/kg s.c., 30 minutes after administration. The procedure:
Intracerebral Migration Test
A Wistar male 5-9 week old rat was used for the test. A test substance was dissolved in saline or a 4.5% cyclodextrin aqueous solution, and 1 mol/L hydrochloric acid (0.5 to 2.0 v/v %) was added thereto as necessary. The test substance was subcutaneously administered to the rat at a dose of 3 or 10 mg/kg. Thirty minutes later, cerebrospinal fluid was collected from the cisterna magna under isoflurane anesthesia. Subsequently, laparotomy was performed, and blood was collected from the vena cava. Thereafter, the blood was centrifuged at 1500×g at 4° C. for 15 minutes to obtain plasma. The animal was euthanized promptly by aortic cutting. The concentrations of the test substance in cerebrospinal fluid and plasma were measured using LC-MS/MS.

A further series concerns Wistar male rats. The series can be described thus: Rat elevated plus maze test. It counts as in vivo. The procedure:
Rat Elevated Plus Maze Test
An anxiolytic effect of a compound provided by the present invention was examined using the rat elevated plus maze test.
For the test, 7 to 9 weeks old Wistar male rats were used. […] Each test substance was dissolved in a 4.5% aqueous solution of cyclodextrin, and orally administered 2 hours before the start of the test. The test data were automatically analyzed by using video image action analysis software (Smart3.0, PanLab S.L., PanLab), and wall-less running route staying time ratio (%) was calculated.

The mark [2] stands for this setting: read-out: μ receptor Emax (*reaction rate at the highest concentration, reference value).
[3] abbreviates: read-out: κ receptor Emax (*reaction rate at the highest concentration, reference value).
The mark [4] stands for this setting: ratio to maximum reaction of control drug DAMGO (100%), read-out: μ receptor Emax.

T4 sequence (P41143 whole entry): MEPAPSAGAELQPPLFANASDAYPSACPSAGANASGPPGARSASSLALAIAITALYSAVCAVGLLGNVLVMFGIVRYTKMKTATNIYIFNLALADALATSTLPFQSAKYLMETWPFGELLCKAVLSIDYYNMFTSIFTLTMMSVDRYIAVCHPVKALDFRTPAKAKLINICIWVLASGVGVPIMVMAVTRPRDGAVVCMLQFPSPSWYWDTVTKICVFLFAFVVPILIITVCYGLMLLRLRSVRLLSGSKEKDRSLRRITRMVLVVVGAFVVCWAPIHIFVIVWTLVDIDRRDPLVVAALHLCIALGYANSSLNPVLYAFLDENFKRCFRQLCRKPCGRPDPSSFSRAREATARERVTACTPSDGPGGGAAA
T3 sequence (Q12809 whole entry): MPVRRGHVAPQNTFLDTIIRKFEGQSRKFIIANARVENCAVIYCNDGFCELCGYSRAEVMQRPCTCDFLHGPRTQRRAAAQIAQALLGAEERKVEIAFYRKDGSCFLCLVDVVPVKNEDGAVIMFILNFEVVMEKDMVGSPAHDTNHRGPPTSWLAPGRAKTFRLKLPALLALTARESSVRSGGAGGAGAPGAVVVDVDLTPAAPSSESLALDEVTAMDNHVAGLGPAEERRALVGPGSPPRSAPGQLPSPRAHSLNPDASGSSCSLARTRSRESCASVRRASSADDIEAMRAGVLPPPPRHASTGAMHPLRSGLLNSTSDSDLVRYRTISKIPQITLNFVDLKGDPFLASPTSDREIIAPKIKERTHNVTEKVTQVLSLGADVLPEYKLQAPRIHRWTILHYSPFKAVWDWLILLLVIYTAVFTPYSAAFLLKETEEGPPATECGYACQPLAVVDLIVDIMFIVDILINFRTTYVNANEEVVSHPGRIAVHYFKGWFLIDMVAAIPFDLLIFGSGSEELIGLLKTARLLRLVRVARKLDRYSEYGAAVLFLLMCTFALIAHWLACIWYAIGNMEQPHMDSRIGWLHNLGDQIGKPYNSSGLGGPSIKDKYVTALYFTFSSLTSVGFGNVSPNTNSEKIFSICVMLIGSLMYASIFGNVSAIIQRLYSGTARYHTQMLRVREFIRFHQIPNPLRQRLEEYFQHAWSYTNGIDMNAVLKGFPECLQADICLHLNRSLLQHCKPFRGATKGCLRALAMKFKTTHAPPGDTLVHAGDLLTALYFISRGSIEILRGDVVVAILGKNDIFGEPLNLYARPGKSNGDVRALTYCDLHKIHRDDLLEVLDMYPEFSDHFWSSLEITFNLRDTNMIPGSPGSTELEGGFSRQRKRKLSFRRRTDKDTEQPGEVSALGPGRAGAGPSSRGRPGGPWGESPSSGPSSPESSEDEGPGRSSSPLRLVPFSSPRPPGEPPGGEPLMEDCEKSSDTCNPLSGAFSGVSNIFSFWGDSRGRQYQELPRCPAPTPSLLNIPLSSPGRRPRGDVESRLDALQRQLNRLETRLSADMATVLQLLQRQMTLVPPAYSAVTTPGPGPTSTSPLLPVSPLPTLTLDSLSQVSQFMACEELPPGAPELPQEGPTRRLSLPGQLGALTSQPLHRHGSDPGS
T2 sequence (P41145 whole entry): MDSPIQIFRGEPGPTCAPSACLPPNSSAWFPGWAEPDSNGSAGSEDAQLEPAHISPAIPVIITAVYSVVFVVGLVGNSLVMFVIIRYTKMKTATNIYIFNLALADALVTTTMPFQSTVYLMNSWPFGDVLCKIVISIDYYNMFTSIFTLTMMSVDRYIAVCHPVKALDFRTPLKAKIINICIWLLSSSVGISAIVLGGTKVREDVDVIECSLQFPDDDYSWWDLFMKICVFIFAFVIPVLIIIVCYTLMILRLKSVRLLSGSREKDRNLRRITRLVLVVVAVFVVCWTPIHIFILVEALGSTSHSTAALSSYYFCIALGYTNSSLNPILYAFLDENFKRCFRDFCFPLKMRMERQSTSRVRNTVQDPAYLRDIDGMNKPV
T1 sequence (P35372 whole entry): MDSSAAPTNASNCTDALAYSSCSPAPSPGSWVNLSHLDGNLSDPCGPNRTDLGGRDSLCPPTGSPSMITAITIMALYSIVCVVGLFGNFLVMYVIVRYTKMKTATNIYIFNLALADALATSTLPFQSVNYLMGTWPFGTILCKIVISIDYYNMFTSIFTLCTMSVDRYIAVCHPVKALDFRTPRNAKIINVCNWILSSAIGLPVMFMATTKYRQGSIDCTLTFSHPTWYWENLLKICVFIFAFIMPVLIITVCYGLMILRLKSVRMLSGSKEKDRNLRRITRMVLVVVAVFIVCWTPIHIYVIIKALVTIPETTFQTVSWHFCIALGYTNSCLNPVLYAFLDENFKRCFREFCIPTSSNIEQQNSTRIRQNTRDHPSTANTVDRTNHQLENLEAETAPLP

Take `O=C([C@H]1CCCCN1)N1C[C@H]2C[C@@]34CC[C@@H]1[C@@H]2[C@@]31CCN(CC2CC2)[C@@H]4Cc2ccc(O)cc21` [Example 4, ((1S,3aR,5aS,6R,11bR,11cS)-14-(cyclopropylmethyl)-10-hydroxy-1,2,3a,4,5,6,7,11c-octahydro-3H-6,11b-(epiminoethano)-1,5a-methanonaphtho[1,2-e]indol-3-yl) ((R)-piperidin-2-yl) methanone dihydrochloride]: the Emax was determined as 0.87% at human opioid μ receptor (setting [2]), 5% at human opioid κ receptor (setting [3]) and 82% on human opioid δ receptor. In addition, on hERG potassium channel, the “hERG channel inhibitory effect (in words)” value is listed as “only a weak inhibitory effect”. For the same compound, the “hERG channel inhibitory effect” value on hERG potassium channel (concentration 10 μM) was less than 50%. Also, the EC50 at human opioid δ receptor was less than 3 nM.

Regarding `O=C([C@H]1CCCNC1)N1C[C@H]2C[C@@]34CC[C@@H]1[C@@H]2[C@@]31CCN(CC2CC2)[C@@H]4Cc2ccc(O)cc21` [Example 6, ((1S,3aR,5aS,6R,11bR,11cS)-14-(cyclopropylmethyl)-10-hydroxy-1,2,3a,4,5,6,7,11c-octahydro-3H-6,11b-(epiminoethano)-1,5a-methanonaphtho[1,2-e]indol-3-yl) ((S)-piperidin-3-yl) methanone dihydrochloride], the Emax on human opioid μ receptor (setting [2]) is 5.5%; on human opioid κ receptor (read-out: κ receptor Emax), 11%; at human opioid δ receptor, 74%. The EC50 at human opioid κ receptor is less than 1 nM; on human opioid δ receptor, less than 3 nM.

Regarding `O=C([C@H]1CCCN1)N1C[C@H]2C[C@@]34CC[C@@H]1[C@@H]2[C@@]31CCN(CC2CC2)[C@@H]4Cc2ccc(O)cc21` [Example 2, (1S,3aR,5aS,6R,11bR,11cS)-3-(D-prolyl)-14-(cyclopropylmethyl)-10-hydroxy-2,3,3a,4,5,6,7,11c-octahydro-1H-6,11b-(epiminoethano)-1,5a-methanonaphtho[1,2-e]indole dihydrochloride], the Emax at human opioid μ receptor (setting [2]) was 3.8%; at human opioid κ receptor (setting [3]) it was 3.8%; on human opioid δ receptor, 95%. Further, the “hERG channel inhibitory effect (in words)” value on hERG potassium channel was “only a weak inhibitory effect”. Moreover, the “hERG channel inhibitory effect” value on hERG potassium channel (concentration 10 μM) is on record as less than 50%. The EC50 at human opioid δ receptor is less than 3 nM.

Regarding `O=C([C@H]1CCCO1)N1C[C@H]2CC34CCC1C2C31CCNC4Cc2ccc(O)cc21` (stereo partly drawn) [Example 14, ((1S,3aR,5aS,6R,11bR,11cS)-10-hydroxy-1,2,3a,4,5,6,7,11c-octahydro-3H-6,11b-(epiinoetano)-1,5a-methanonaphtho[1,2-e]indol-3-yl) ((R)-tetrahydrofuran-2-yl) methanone], the “hERG channel inhibitory effect (in words)” value on hERG potassium channel is “only a weak inhibitory effect”. Besides, the “hERG channel inhibitory effect” value on hERG potassium channel (concentration 10 μM) was less than 50%.

In the case of `O=C1CC[C@H](C(=O)N2C[C@H]3C[C@@]45CC[C@@H]2[C@@H]3[C@@]42CCN(CC3CC3)[C@@H]5Cc3ccc(O)cc32)O1` [Example 13, (R)-5-((1S,3aR,5aS,6R,11bR,11cS)-14-(cyclopropylmethyl)-10-hydroxy-2,3,3a,4,5,6,7,11c-octahydro-1H-6,11b-(epiminoethano)-1,5a-methanonaphtho[1,2-e]indole-3-carbonyl) dihydrofuran-2(3H)-one], the EC50 at human opioid μ receptor is greater than 1 nM; on human opioid κ receptor (CHO cells expressing human κ receptor, cAMP, N.C. = maximum reaction not reached at highest concentration (10 μM), not calculated, read-out: κ receptor EC° C.) it was less than 1 nM; on human opioid δ receptor it was less than 3 nM. For the same compound, the Emax at human opioid μ receptor (setting [4]) was determined as 35%; on human opioid κ receptor (ratio to maximum reaction of control drug U-69593 (100%), read-out: κ receptor Emax), 13%; on human opioid δ receptor, 70%. Besides, the “hERG channel inhibitory effect” value on hERG potassium channel (concentration 1 μM) was less than 50%.

On to `CN1CCC[C@@H]1C(=O)N1C[C@H]2C[C@@]34CC[C@@H]1[C@@H]2[C@@]31CCN(CC2CC2)[C@@H]4Cc2ccc(O)cc21` [Example 9, (1S,3aR,5aS,6R,11bR,11cS)-14-(cyclopropylmethyl)-10-hydroxy-3-(methyl-D-prolyl)-2,3,3a,4,5,6,7,11c-octahydro-1H-6,11b-(epiminoethano)-1,5a-methanonaphtho[1,2-e]indol], for which the Emax on human opioid μ receptor (setting [2]) is -0.6%; at human opioid κ receptor (setting [3]) it was 3.7%; at human opioid δ receptor it was 64%. In addition, the EC50 on human opioid δ receptor is less than 3 nM.

As for `O=C([C@H]1CCCO1)N1C[C@H]2CC34CCC1C2C31CCN(CC2CC2)C4Cc2ccc(O)cc21` (stereo partly drawn) [Example 12, ((1S,3aR,5aS,6R,11bR,11cS)-14-(cyclopropylmethyl)-10-hydroxy-1,2,3a,4,5,6,7,11c-octahydro-3H-6,11b-(epiinoetano)-1,5a-methanonaphtho[1,2-e]indol-3-yl) ((R)-tetrahydrofuran-2-yl) methanone], the “wall-less traveling path residence time rate” value is listed as “significantly increases” in the series on C57BL/6N male mice and “significantly increases” with Wistar male rats (rat, 0.3 mg/kg oral administration, 2 hours before test (FIG. 2)). The values for the EC50 at human opioid μ receptor and on human opioid δ receptor were greater than 1 nM and less than 1 nM, respectively. Also, the values for the Emax at human opioid μ receptor (setting [4]), on human opioid κ receptor (setting [3]) and on human opioid δ receptor were 12%, 8.7% and 85%, respectively. Further, the concentration at 30 min turned out to be 42 nM in series [1] (cerebrospinal fluid, read-out: Concentration in cerebrospinal fluid) and 580 nM in series [1] (plasma, read-out: Concentration in plasma). The “minimum effective medicinal dose” value in the series with Wistar male rats (rat elevated plus maze test, p. o.) came to 0.3 mg/kg. Further, at hERG potassium channel (concentration 1 μM), the “hERG channel inhibitory effect” value is less than 50%.
